Assay results: PubChem BioAssay (NCI)
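Values below derive from 48-hour exposures of cells grown in 96-well plates, with endpoints linearly interpolated between the two concentrations bracketing the appropriate inhibition level. The concentration for 50% growth inhibition is given as GI50. TGI is the concentration that stops growth completely.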

Experiments:
Assay in all cases: NCI tumour cell line growth inhibition, 48 h
HCC-2998 colon = test system: HCC-2998 colon
SF-539 CNS = test system: SF-539 CNS
COLO 205 colon = test system: COLO 205 colon
ACHN renal = test system: ACHN renal
HCT-116 colon = test system: HCT-116 colon
OVCAR-4 ovarian = test system: OVCAR-4 ovarian
HOP-62 NSCLC = test system: HOP-62 NSCLC
SK-MEL-28 melanoma = test system: SK-MEL-28 melanoma
HOP-92 NSCLC = test system: HOP-92 NSCLC
MDA-MB-231 breast = test system: MDA-MB-231 breast
SW-620 colon = test system: SW-620 colon
UACC-257 melanoma = test system: UACC-257 melanoma
MOLT-4 leukemia = test system: MOLT-4 leukemia
HCT-15 colon = test system: HCT-15 colon
NCI-H226 lung = test system: NCI-H226 lung
BT-549 breast = test system: BT-549 breast
MDA-MB-435 = test system: MDA-MB-435
MCF7 breast = test system: MCF7 breast
SK-MEL-2 melanoma = test system: SK-MEL-2 melanoma
M14 melanoma = test system: M14 melanoma
UACC-62 melanoma = test system: UACC-62 melanoma
T-47D breast = test system: T-47D breast
NCI-H23 lung = test system: NCI-H23 lung
SF-295 CNS = test system: SF-295 CNS
OVCAR-8 ovarian = test system: OVCAR-8 ovarian

Cc1cc(=O)[nH]c2c1C(=O)C(=O)C=C2
GI50 (HCC-2998 colon): > 100 µM | TGI (HCC-2998 colon): > 100 µM | GI50 (SF-539 CNS): 28.2 µM | TGI (SF-539 CNS): 47.7 µM | GI50 (COLO 205 colon): > 100 µM | TGI (COLO 205 colon): > 100 µM | GI50 (ACHN renal): 31.7 µM | TGI (ACHN renal): > 100 µM | GI50 (HCT-116 colon): 18.2 µM | TGI (HCT-116 colon): 35.4 µM | GI50 (OVCAR-4 ovarian): 25.6 µM | TGI (OVCAR-4 ovarian): 63.4 µM | GI50 (HOP-62 NSCLC): 17.6 µM | TGI (HOP-62 NSCLC): 35.7 µM | GI50 (SK-MEL-28 melanoma): > 100 µM | TGI (SK-MEL-28 melanoma): > 100 µM | GI50 (HOP-92 NSCLC): 77.9 µM | TGI (HOP-92 NSCLC): > 100 µM | GI50 (MDA-MB-231 breast): 21.2 µM | TGI (MDA-MB-231 breast): 45.2 µM | GI50 (SW-620 colon): 24.7 µM | TGI (SW-620 colon): 67.8 µM | GI50 (UACC-257 melanoma): > 100 µM | TGI (UACC-257 melanoma): > 100 µM | GI50 (MOLT-4 leukemia): 39.5 µM | TGI (MOLT-4 leukemia): > 100 µM | GI50 (HCT-15 colon): 60.5 µM | TGI (HCT-15 colon): > 100 µM | GI50 (NCI-H226 lung): 28.6 µM | TGI (NCI-H226 lung): 73 µM | GI50 (BT-549 breast): 57.8 µM | TGI (BT-549 breast): > 100 µM | GI50 (MDA-MB-435): 15.1 µM | TGI (MDA-MB-435): 33.2 µM | GI50 (MCF7 breast): 29 µM | TGI (MCF7 breast): 60.6 µM | GI50 (SK-MEL-2 melanoma): > 100 µM | TGI (SK-MEL-2 melanoma): > 100 µM | GI50 (M14 melanoma): 23.8 µM | TGI (M14 melanoma): 60.9 µM | GI50 (UACC-62 melanoma): 36.4 µM | TGI (UACC-62 melanoma): > 100 µM | GI50 (T-47D breast): 58.6 µM | TGI (T-47D breast): > 100 µM | GI50 (NCI-H23 lung): 21.9 µM | TGI (NCI-H23 lung): 48.3 µM | GI50 (SF-295 CNS): 24.1 µM | TGI (SF-295 CNS): 52.8 µM | GI50 (OVCAR-8 ovarian): 32.7 µM | TGI (OVCAR-8 ovarian): 73.9 µM
